Patent US8685977B2, “Chemical compounds” (Pfizer Limited, priority 2010, dated 2014)

What follows are compounds tested against T1, Nav1.7 (or SCN9A) channel (Homo sapiens, UniProt Q15858) (assay: Nav1.7 PatchXpress 7000 automated electrophysiology assay (HEK cells stably expressing hSCN9A)). Details: voltage-clamped at V1/2 of inactivation, read-out: Nav1.7 EIC50.
T1 construct: expressed in transfected cells
T1 sequence (Q15858 whole entry): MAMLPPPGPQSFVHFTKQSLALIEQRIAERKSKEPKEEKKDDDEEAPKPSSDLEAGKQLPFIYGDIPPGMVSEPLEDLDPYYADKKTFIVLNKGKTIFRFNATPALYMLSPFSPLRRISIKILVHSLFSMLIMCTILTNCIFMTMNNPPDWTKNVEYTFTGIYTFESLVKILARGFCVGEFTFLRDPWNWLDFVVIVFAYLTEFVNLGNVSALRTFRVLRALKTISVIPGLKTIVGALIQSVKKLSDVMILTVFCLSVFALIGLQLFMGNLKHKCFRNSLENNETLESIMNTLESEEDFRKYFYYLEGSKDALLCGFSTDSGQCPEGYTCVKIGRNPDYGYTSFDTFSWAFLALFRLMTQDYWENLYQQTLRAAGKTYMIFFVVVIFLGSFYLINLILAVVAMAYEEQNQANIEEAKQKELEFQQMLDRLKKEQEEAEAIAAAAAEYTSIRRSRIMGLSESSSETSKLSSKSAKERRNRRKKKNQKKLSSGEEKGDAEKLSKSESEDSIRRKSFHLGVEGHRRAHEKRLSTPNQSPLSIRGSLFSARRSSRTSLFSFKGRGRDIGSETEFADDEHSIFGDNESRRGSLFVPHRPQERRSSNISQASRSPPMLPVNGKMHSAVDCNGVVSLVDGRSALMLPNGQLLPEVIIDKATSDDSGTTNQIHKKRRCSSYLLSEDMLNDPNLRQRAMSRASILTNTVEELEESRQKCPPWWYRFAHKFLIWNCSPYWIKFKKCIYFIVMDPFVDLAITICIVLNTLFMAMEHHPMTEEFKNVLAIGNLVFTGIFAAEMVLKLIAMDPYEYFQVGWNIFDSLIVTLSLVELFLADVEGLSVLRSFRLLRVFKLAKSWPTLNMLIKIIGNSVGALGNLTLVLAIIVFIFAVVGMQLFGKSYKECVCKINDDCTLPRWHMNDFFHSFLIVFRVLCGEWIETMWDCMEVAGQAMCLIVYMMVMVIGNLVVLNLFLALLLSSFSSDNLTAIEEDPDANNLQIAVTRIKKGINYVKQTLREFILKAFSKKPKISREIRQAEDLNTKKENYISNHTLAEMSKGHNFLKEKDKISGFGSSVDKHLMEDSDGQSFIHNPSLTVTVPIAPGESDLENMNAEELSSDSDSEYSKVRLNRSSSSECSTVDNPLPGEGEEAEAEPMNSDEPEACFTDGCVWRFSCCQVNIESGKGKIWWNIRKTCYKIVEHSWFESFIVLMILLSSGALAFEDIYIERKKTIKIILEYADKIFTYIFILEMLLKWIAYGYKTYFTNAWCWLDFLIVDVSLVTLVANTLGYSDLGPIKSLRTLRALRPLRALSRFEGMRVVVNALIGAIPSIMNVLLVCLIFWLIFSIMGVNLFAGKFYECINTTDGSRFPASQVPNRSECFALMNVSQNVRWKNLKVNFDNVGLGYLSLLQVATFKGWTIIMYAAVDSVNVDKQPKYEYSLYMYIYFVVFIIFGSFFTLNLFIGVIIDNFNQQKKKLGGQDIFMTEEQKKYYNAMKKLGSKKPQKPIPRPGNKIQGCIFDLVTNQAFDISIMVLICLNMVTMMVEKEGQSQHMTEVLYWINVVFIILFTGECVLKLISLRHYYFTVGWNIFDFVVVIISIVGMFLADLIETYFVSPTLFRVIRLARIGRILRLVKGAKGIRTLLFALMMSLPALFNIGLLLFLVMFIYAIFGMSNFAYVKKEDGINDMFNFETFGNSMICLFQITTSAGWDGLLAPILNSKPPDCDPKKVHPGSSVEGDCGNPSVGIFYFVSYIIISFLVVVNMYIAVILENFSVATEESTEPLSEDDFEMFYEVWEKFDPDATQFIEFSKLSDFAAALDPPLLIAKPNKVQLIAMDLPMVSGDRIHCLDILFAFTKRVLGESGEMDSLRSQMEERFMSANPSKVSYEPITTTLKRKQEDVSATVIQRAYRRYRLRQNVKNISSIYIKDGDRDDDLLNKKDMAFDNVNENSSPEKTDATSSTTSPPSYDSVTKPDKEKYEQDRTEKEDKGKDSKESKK
Assay type: cell-based
Experimental: The ability of the compounds of formula (I) to block the Nav1.7 (or SCN9A) channel was measured using the assays described below.
Human Embryonic Kidney (HEK) cells were transfected with an hSCN9A construct using lipofectamine reagent (Invitrogen), using standard techniques. Cells stably expressing the hSCN9A constructs were identified by their resistance to G-418 (400 μg/ml). Clones were screened for expression using the whole-cell voltage-clamp technique.
HEK cells stably transfected with hSCN9A were maintained in DMEM medium supplemented with 10% heat-inactivated fetal bovine serum and 400 μg/ml G-418 in an incubator at 37° C. with a humidified atmosphere of 10% CO2. For HTS, cells were harvested from flasks by trypsinization and replated in an appropriate multi-well plate (typically 96 or 384 wells/plate) such that confluence would be achieved within 24 hours of plating. For electrophysiological studies, cells were removed from the culture flask by brief trypsinization and re-plated at low density onto glass cover slips. Cells were typically used for electrophysiological experiments within 24 to 72 hours after plating.
Cover slips containing HEK cells expressing hSCN9A were placed in a bath on the stage of an inverted microscope and perfused (approximately 1 ml/minutes) with extracellular solution of the following composition: 138 mM NaCl, 2 mM CaCl2, 5.4 mM KCl, 1 mM MgCl2, 10 mM glucose, and 10 mM HEPES, pH 7.4, with NaOH. […] The osmolarity of the extracellular and intracellular solutions was 300 mOsm/kg and 295 mOsm/kg, respectively. All recordings were made at room temperature (22-24° C.) using AXOPATCH 200B amplifiers and PCLAMP software (Axon Instruments, Burlingame, Calif.).
HEK cells stably transfected with hSCN9A were viewed under Hoffman contrast optics and placed in front of an array of flow pipes emitting either control or compound-containing extracellular solutions. All compounds were dissolved in dimethyl sulfoxide to make 10 mM stock solutions, which were then diluted into extracellular solution to attain the final concentrations desired. […] The voltage-dependence of inactivation was determined by applying a series of depolarizing prepulses (8 sec long in 10 mV increments) from a negative holding potential. The voltage was then immediately stepped to 0 mV to assess the magnitude of the sodium current. Currents elicited at 0 mV were plotted as a function of prepulse potential to allow estimation of the voltage at which 50% of the channels were inactivated (midpoint of inactivation or V1/2). Compounds were tested for their ability to inhibit hSCN9A sodium channels by activating the channel with a 20 msec voltage step to 0 mV following an 8 second conditioning prepulse to the empirically determined V1/2. Compound effect (% inhibition) was determined by difference in current amplitude before and after application of test compounds. For ease of comparison, “estimated IC-50” (EIC50) values were calculated from single point electrophysiology data by the following equation, (tested concentration, uM)×(100-% inhibition/% inhibition). Inhibition values <20% and >80% were excluded from the calculation.
Electrophysiological assays were conducted with PatchXpress 7000 hardware and associated software (Molecular Devices Corp). All assay buffers and solutions were identical to those used in conventional whole-cell voltage clamp experiments described above. hSCN9A cells were grown as above to 50%-80% confluency and harvested by trypsinization. Trypsinized cells were washed and resuspended in extracellular buffer at a concentration of 1×10^6 cells/ml. The onboard liquid handling facility of the PatchXpress was used for dispensing cells and application of test compounds. Determination of the voltage midpoint of inactivation was as described for conventional whole-cell recordings. Cells were then voltage-clamped to the empirically determined V1/2 and current was activated by a 20 msec voltage step to 0 mV. […]
Work on CS(=O)(=O)NC(=O)c1cc(F)c(Oc2ccccc2OC(F)(F)F)cc1F [Example 103, 2,5-difluoro-N-(methylsulfonyl)-4-[2-(trifluoromethoxy)phenoxy]benzamide] yielded an IC50 of 3.2 µM. Work on CS(=O)(=O)NC(=O)c1cc(F)c(Oc2ccc(OC(F)(F)F)c(Cl)c2)cc1F [Example 55, 4-(3-chloro-4-(trifluoromethoxy)phenoxy)-2,5-difluoro-N-(methylsulfonyl)benzamide] yielded an IC50 of 0.34 µM. Cc1ccc(Cl)c(Oc2cc(F)c(C(=O)NS(C)(=O)=O)cc2F)c1 [Example 110, 4-(2-chloro-5-methylphenoxy)-2,5-difluoro-N-(methylsulfonyl)benzamide] gave an IC50 greater than 1 µM. In the case of COc1cccc(Oc2ccc(C(=O)NS(C)(=O)=O)cc2)c1 [Example 161, 4-(3-methoxyphenoxy)-N-(methylsulfonyl)benzamide], the IC50 is reported as 28 µM. With Cc1cccc(Oc2cc(F)c(C(=O)NS(C)(=O)=O)cc2F)c1 [Example 157, 2,5-difluoro-4-(3-methylphenoxy)-N-(methylsulfonyl)benzamide] the IC50 was 6.8 µM. CS(=O)(=O)NC(=O)c1ccc(Oc2ccc(Cl)c(C(F)(F)F)c2)cc1F [Example 14, 4-(4-chloro-3-(trifluoromethyl)phenoxy)-2-fluoro-N-(methylsulfonyl)benzamide] gave an IC50 of 0.85 µM. CS(=O)(=O)NC(=O)c1cc(F)c(Oc2ccc(C(F)(F)F)c(Cl)c2)cc1F [Example 33, 4-(3-chloro-4-(trifluoromethyl)phenoxy)-2,5-difluoro-N-(methylsulfonyl)benzamide] gave an IC50 of 0.5 µM. CS(=O)(=O)NC(=O)c1ccc(Oc2ccc(Cl)c(F)c2)cc1 [Example 220, 4-(4-chloro-3-fluorophenoxy)-N-(methylsulfonyl)benzamide] was tested, and the IC50 was 1.8 µM. COc1ccc(Oc2cc(F)c(C(=O)NS(C)(=O)=O)cc2F)c(Cl)c1 [Example 146, 4-(2-chloro-4-methoxyphenoxy)-2,5-difluoro-N-(methylsulfonyl)benzamide] was tested, and the IC50 was greater than 3 µM. CS(=O)(=O)NC(=O)c1ccc(Nc2cccc(C(F)(F)F)c2)cc1 [Example 321, N-(methylsulfonyl)-4-(3-(trifluoromethyl)phenylamino)benzamide] was tested, and the IC50 was 0.32 µM. Compound CS(=O)(=O)NC(=O)c1cc(F)c(Oc2ccc(Cl)cc2Cl)cc1F [Example 123, 4-(2,4-dichlorophenoxy)-2,5-difluoro-N-(methylsulfonyl)benzamide] has an IC50 of 2 µM. Compound CS(=O)(=O)NC(=O)c1cc(F)c(Oc2cc(C(F)(F)F)ccc2Cl)cc1F [Example 121, 4-[2-chloro-5-(trifluoromethyl)phenoxy]-2,5-difluoro-N-(methylsulfonyl)benzamide] has an IC50 greater than 1 µM. CS(=O)(=O)NC(=O)c1ccc(Oc2ccc(-n3ccnc3)cc2)cc1 [Example 311, 4-[4-(1H-imidazol-1-yl)phenoxy]-N-(methylsulfonyl)benzamide] showed an IC50 greater than 3 µM. Compound COc1ccc(Oc2ccc(C(=O)NS(C)(=O)=O)cc2)c(Cl)c1 [Example 183, 4-(2-chloro-4-methoxyphenoxy)-N-(methylsulfonyl)benzamide] has an IC50 greater than 10 µM. In the case of CS(=O)(=O)NC(=O)c1ccc(Oc2ccc3ccccc3c2)c(Cl)c1 [Example 246, 3-chloro-N-(methylsulfonyl)-4-(2-naphthyloxy)benzamide], the IC50 is reported as 0.49 µM. Work on CS(=O)(=O)NC(=O)c1ccc(Oc2ccc(Cl)c(C(F)(F)F)c2)c(Cl)c1F [Example 320, 3-chloro-4-(4-chloro-3-(trifluoromethyl)phenoxy)-2-fluoro-N-(methylsulfonyl)benzamide] yielded an IC50 of 1.8 µM. In the case of CCc1cc(F)ccc1Oc1ccc(C(=O)NS(C)(=O)=O)cc1F [Example 20, 4-(2-ethyl-4-fluorophenoxy)-3-fluoro-N-(methylsulfonyl)benzamide], the IC50 is reported as 5.4 µM. For Cc1cc(C(=O)NS(C)(=O)=O)c(F)cc1Oc1ccc(Cl)c(C(F)(F)F)c1 [Example 8, 4-[4-chloro-3-(trifluoromethyl)phenoxy]-2-fluoro-5-methyl-N-(methylsulfonyl)benzamide], the IC50 was 0.035 µM. In the case of CS(=O)(=O)NC(=O)c1cc(Cl)c(Oc2ccc(C#N)cc2)cc1F [Example 286, 5-chloro-4-(4-cyanophenoxy)-2-fluoro-N-(methylsulfonyl)benzamide], the IC50 is reported as 3.4 µM. CS(=O)(=O)NC(=O)c1ccc(Oc2ccc(-c3ccccc3)cc2)c(C#N)c1 [Example 280, 4-(biphenyl-4-yloxy)-3-cyano-N-(methylsulfonyl)benzamide] was tested, and the IC50 was 0.43 µM. Cc1ccc(F)cc1Oc1ccc(C(=O)NS(C)(=O)=O)cc1 [Example 179, 4-(5-fluoro-2-methylphenoxy)-N-(methylsulfonyl)benzamide] gave an IC50 greater than 10 µM. CS(=O)(=O)NC(=O)c1cc(Cl)c(Oc2cccc3ccccc23)cc1F [Example 287, 5-chloro-2-fluoro-N-(methylsulfonyl)-4-(1-naphthyloxy)benzamide] showed an IC50 of 2.1 µM. For CS(=O)(=O)NC(=O)c1cc(Cl)c(Oc2ccc(Cl)cc2OC(F)(F)F)cc1F [Example 53, 5-chloro-4-[4-chloro-2-(trifluoromethoxy)phenoxy]-2-fluoro-N-(methylsulfonyl)benzamide], the IC50 was 0.063 µM. For CS(=O)(=O)NC(=O)c1ccc(Oc2ccccc2-c2ccccc2)cc1 [Example 268, 4-(biphenyl-2-yloxy)-N-(methylsulfonyl)benzamide], the IC50 was 5.3 µM. Cc1ccccc1Oc1ccc(C(=O)NS(C)(=O)=O)cc1 [Example 191, 4-(2-methylphenoxy)-N-(methylsulfonyl)benzamide] was tested, and the IC50 was greater than 10 µM. Compound CS(=O)(=O)NC(=O)c1ccc(Oc2ccc(Cl)c(C(F)(F)F)c2)cc1Cl [Example 43, 2-chloro-4-[4-chloro-3-(trifluoromethyl)phenoxy]-N-(methylsulfonyl)benzamide] has an IC50 of 5.8 µM. Cc1ccc(C)c(Oc2cc(F)c(C(=O)NS(C)(=O)=O)cc2F)c1 [Example 127, 4-(2,5-dimethylphenoxy)-2,5-difluoro-N-(methylsulfonyl)benzamide] gave an IC50 greater than 3 µM. Work on Cc1ccc(Oc2cc(F)c(C(=O)NS(C)(=O)=O)cc2Cl)cc1 [Example 291, 5-chloro-2-fluoro-4-(4-methylphenoxy)-N-(methylsulfonyl)benzamide] yielded an IC50 of 0.42 µM. For COc1cc(Cl)ccc1Oc1ccc(C(=O)NS(C)(=O)=O)cc1C#N [Example 63, 4-(4-chloro-2-methoxyphenoxy)-3-cyano-N-(methylsulfonyl)benzamide], the IC50 was greater than 3 µM. In the case of CCOc1ccccc1Oc1cc(F)c(C(=O)NS(C)(=O)=O)cc1F [Example 98, 4-(2-ethoxyphenoxy)-2,5-difluoro-N-(methylsulfonyl)benzamide], the IC50 is reported as greater than 1 µM. With COc1cc(Oc2ccc(Cl)c(C(F)(F)F)c2)ccc1C(=O)NS(C)(=O)=O [Example 326, 4-(4-chloro-3-(trifluoromethyl)phenoxy)-2-methoxy-N-(methylsulfonyl)benzamide] the IC50 was 4.1 µM. CS(=O)(=O)NC(=O)c1ccc(Oc2ccccc2OCc2ccccc2)cc1 [Example 176, 4-[2-(benzyloxy)phenoxy]-N-(methylsulfonyl)benzamide] gave an IC50 greater than 10 µM. In the case of CS(=O)(=O)NC(=O)c1cc(Cl)c(Oc2ccc(OC(F)(F)F)c(Cl)c2)cc1F [Example 7, 5-chloro-4-[3-chloro-4-(trifluoromethoxy)phenoxy]-2-fluoro-N-(methylsulfonyl)benzamide], the IC50 is reported as 0.025 µM. COc1ccc(Cl)cc1Oc1cc(F)c(C(=O)NS(C)(=O)=O)cc1Cl [Example 54, 5-chloro-4-(5-chloro-2-methoxyphenoxy)-2-fluoro-N-(methylsulfonyl)benzamide] showed an IC50 of 2.3 µM. COc1cc(Cl)ccc1Oc1ccc(C(=O)NS(C)(=O)=O)cc1 [Example 175, 4-(4-chloro-2-methoxyphenoxy)-N-(methylsulfonyl)benzamide] gave an IC50 greater than 10 µM. CS(=O)(=O)NC(=O)c1ccc(Oc2ccccc2Cl)cc1 [Example 164, 4-(2-chlorophenoxy)-N-(methylsulfonyl)benzamide] showed an IC50 greater than 10 µM.
